For 24 molecules, inhibition in vivo results are on record in patent publication US9302996B2, “Continuous arycyclic compound” (MITSUBISHI TANABE PHARMA CORPORATION, priority 2010, dated 2016).

Structures are written as SMILES. Like-named read-outs stand apart in the source and are kept apart here.

What all share (type): in vivo
Assay [1] deals with ICR mice. Kind of assay: Triglyceride (TG) in blood plasma increase-inhibiting action due to lipid administration. As to conditions: Mus musculus; male ICR mice, 5 mg/kg oral, lipid (Intralipos 20%) after 30 minutes, plasma TG 2 hours after lipid; read-out: Inhibiting rate of TG-increase in blood plasma (5 mg/kg). As for the experimental part: 6 to 9 weeks-old male ICR mice were fasted overnight, and Test compound suspended in 0.2% carboxymethyl cellulose solution was orally administered to the mice. A lipid (Intralipos 20%, OTSUKA PHARMACEUTICAL CO., LTD., 10 mL/kg) was orally administered after 30 minutes. Blood was collected from tail vein immediately before the lipid administration, and after 2 hours from the same to obtain blood plasma. Measurement of TG in blood plasma was carried out by using a triglyceride E Test Wako (Wako Pure Chemical Industries, Ltd.), and an increased value of TG in blood plasma by administration of the lipid was calculated. An increased value of TG in blood plasma in a solvent control group was used as a control, and an inhibiting rate in increase of TG in blood plasma in the Test compound administered group was calculated.

The test system of assay [2] is KK-Ay mice. Kind of assay: Weight gain-inhibiting action, hypoglycemic effect, insulin in blood plasma lowering action in KK-Ay mice. As to conditions: Mus musculus, 336 h, male KK-Ay mice, high fat diet, 30 mg/kg/day oral, 2 weeks. As for the experimental part:
To 8 weeks-old male KK-Ay mice were provided high fat diet (Oriental Yeast Co., Ltd, 60 cal % fat), and Test compound suspended in 0.2% carboxymethylcellulose solution was orally administered once a day. Oral administration was continued for 2 weeks, and a weight gain-inhibiting rate of the Test compound was calculated by using a weight gain amount of the solvent control group during the test period as 100%. After final administration, the mice were fasted overnight, and blood was collected from tail vein. Measurement of a blood-sugar level was carried out by using glucose Cα Test Wako (Wako Pure Chemical Industries, Ltd.), and measurement of insulin in blood plasma was carried out by using a mouse insulin measurement kit (Morinaga Institute of Biological Science, Inc.).

Assay [3] relates to C57BL/6J mice. Kind of assay: Antifeeding activity (high fat diet intake up to 4 hours). As to conditions: Mus musculus, male C57BL/6J mice, 5 mg/kg oral, food ingested up to 4 hours, read-out: Antifeeding rate (5 mg/kg). As for the experimental part:
7 to 10 weeks-old male C57BL/6J mice were fasted overnight, and the test compound suspended in 0.2% carboxymethylcellulose solution was orally administered. Immediately after the administration, high fat diet (Oriental Yeast Co., Ltd, 60 cal % fat) was provided and freely fed. An amount of food ingested up to 4 hours was measured, and a lowering rate (an antifeeding rate) of the amount of food ingested in the Test compound administered group was calculated as compared to that of the solvent control group as a control.

Setting [4] is: read-out: Hypoglycemic action (30 mg/kg/day).
[5] abbreviates: read-out: Insulin in blood plasma-lowering action (30 mg/kg/day).
Setting [6] is: read-out: Weight gain-inhibiting action (30 mg/kg/day).

Turning to `CCC(CC)(COc1ccc(-c2ccc(-c3ncc(C(F)(F)F)[nH]3)cn2)cn1)C(=O)O` [Example 22], the inhibition in vivo at 5 mg/kg in assay [1] is 76%; in assay [3] it was 69%. Besides, the results for the inhibition in vivo at 30 mg/kg in assay [2] (setting [4]), in assay [2] (setting [5]) and in assay [2] (setting [6]) were 40%, 47% and 30%, respectively.

Regarding `Cc1cc(OCC(C)(C)C(=O)O)ncc1-c1ccc(-c2ncc(C(F)(F)F)[nH]2)nc1` [Example 61-3), 2,2-dimethyl-3-({4-methyl-6′-[5-(trifluoromethyl)-1H-imidazol-2-yl]-3,3′-bipyridin-6-yl}oxy)propanoic acid], the inhibition in vivo at 5 mg/kg in assay [1] worked out at 68%; in assay [3], 80%. Moreover, the results for the inhibition in vivo at 30 mg/kg in assay [2] (setting [4]), in assay [2] (setting [5]) and in assay [2] (setting [6]) were 60%, 77% and 90%, respectively.

Consider `CC(C)(COc1ncc(-c2ccc(-c3ncc(C(F)(F)F)[nH]3)c(F)c2)cc1F)C(=O)O` [Example 84], for which the inhibition in vivo at 5 mg/kg is 75% in assay [1] and 64% in assay [3]. In addition, the results for the inhibition in vivo at 30 mg/kg in assay [2] (setting [4]), in assay [2] (setting [5]) and in assay [2] (setting [6]) were 65%, 76% and 48%, respectively.

`O=C(O)C1(COc2ccc(-c3ccc(-c4ncc(C(F)(F)F)[nH]4)cn3)cc2)CCC1` [Example 14]: the inhibition in vivo at 5 mg/kg was determined as 69% in assay [1] and 66% in assay [3]. The values for the inhibition in vivo at 30 mg/kg in assay [2] (setting [4]), in assay [2] (setting [5]) and in assay [2] (setting [6]) were 23%, 27% and 17%, respectively.

`CC(C)(COc1ccc(-c2ccc(-c3ncc(C4(C(F)(F)F)CC4)[nH]3)c(F)c2)cn1)C(=O)O` [Example 45]: the inhibition in vivo at 5 mg/kg in assay [1] worked out at 71%; in assay [3], 72%. Also, the values for the inhibition in vivo at 30 mg/kg in assay [2] (setting [4]), in assay [2] (setting [5]) and in assay [2] (setting [6]) were 59%, 56% and 42%, respectively.

On to `Cc1cc(OCC(C)(C)C(=O)O)ncc1-c1cnc(-c2ncc(C(F)(F)F)[nH]2)c(F)c1` [Example 107], for which the inhibition in vivo at 5 mg/kg in assay [1] was found to be 62%; in assay [3], 57%. The inhibition in vivo at 30 mg/kg was determined as 57% in assay [2] (setting [4]), 58% in assay [2] (setting [5]) and 48% in assay [2] (setting [6]).

`Cc1cc(-c2ccc(OCC(C)(C)C(=O)O)cc2)ncc1-c1ncc(C(F)(F)F)[nH]1` [Example 5-3), 2,2-dimethyl-3-(4-{4-methyl-5-[5-(trifluoromethyl)-1H-imidazol-2-yl]pyridin-2-yl}-phenoxy)propanoic acid]: the inhibition in vivo at 5 mg/kg in assay [1] is 71%; in assay [3] it was 37%. Also, the inhibition in vivo at 30 mg/kg in assay [2] (setting [4]) came out at 55%; in assay [2] (setting [5]) it was 56%; in assay [2] (setting [6]) it was 48%.

On to `CC(C)(COc1ccc(-c2cnc(-c3ncc(C(F)(F)F)[nH]3)cn2)cc1)C(=O)O` [Example 7-7), 2,2-dimethyl-3-(4-{5-[5-(trifluoromethyl)-1H-imidazol-2-yl]pyrazin-2-yl}phenoxy)-propanoic acid], for which the inhibition in vivo at 5 mg/kg was determined as 71% in assay [1] and 75% in assay [3]. In addition, the inhibition in vivo at 30 mg/kg in assay [2] (setting [4]) is 62%; in assay [2] (setting [5]) it was 58%; in assay [2] (setting [6]) it was 66%.

For the molecule `CC(C)(COc1ccc(-c2ccc(-c3ncc(C(F)(F)F)[nH]3)cn2)cc1F)C(=O)O` [Example 4-2), 3-(2-fluoro-4-{5-[5-(trifluoromethyl)-1H-imidazol-2-yl]pyridin-2-yl}phenoxy)-2,2-dimethylpropanoic acid], the inhibition in vivo at 5 mg/kg in assay [1] was 60%; in assay [3], 82%. The inhibition in vivo at 30 mg/kg in assay [2] (setting [4]) was 50%; in assay [2] (setting [5]), 52%; in assay [2] (setting [6]), 49%.

As to `Cc1cc(OCC(C)(C)C(=O)O)ncc1-c1ccc(-c2ncc(C(F)(F)F)[nH]2)c(C)c1` [Example 77], the inhibition in vivo at 5 mg/kg came to 75% in assay [1] and 65% in assay [3]. Moreover, the inhibition in vivo at 30 mg/kg in assay [2] (setting [4]) worked out at 60%; in assay [2] (setting [5]), 65%.

`CC(C)(CCOc1ccc(-c2ccc(-c3ncc(C(F)(F)F)[nH]3)cn2)cc1)C(=O)O` [Example 18-2), 2,2-dimethyl-4-[4-[5-[5-(trifluoromethyl)-1H-imidazol-2-yl]-2-pyridin]phenoxy]butanoic acid]: the inhibition in vivo at 5 mg/kg in assay [1] came to 69%; in assay [3] it was 83%.

As to `Cc1cc(-c2ccc(-c3ncc(C(F)(F)F)[nH]3)cn2)ccc1OCC(C)(C)C(=O)O` [Example 8-2), 2,2-dimethyl-3-[2-methyl-4-[5-[5-(trifluoromethyl)-1H-imidazol-2-yl]-2-pyridyl]phenoxy]propanoic acid], the values for the inhibition in vivo at 5 mg/kg in assay [1] and in assay [3] were 46% and 57%, respectively.

For the molecule `Cc1cc(-c2ccc(OCC(C)(C)C(=O)O)cc2)ncc1-c1ncc(C2(C(F)(F)F)CC2)[nH]1` [Example 35-3), 2,2-dimethyl-3-[4-(4-methyl-5-{5-[1-(trifluoromethyl)cyclopropyl]-1H-imidazol-2-yl}pyridin-2-yl)phenoxy]-propanoic acid], the results for the inhibition in vivo at 5 mg/kg in assay [1] and in assay [3] were 54% and 56%, respectively.

On to `CC(C)(COc1ccc(-c2ccc(-c3ncc(CC(F)F)[nH]3)cn2)cc1)C(=O)O` [Example 12], for which the inhibition in vivo at 5 mg/kg in assay [1] worked out at 51%; in assay [3] it was 40%.

With `CC(C)(COc1cnc(-c2ccc(-c3ncc(C4(C(F)(F)F)CC4)[nH]3)cc2)cn1)C(=O)O` [Example 49], the inhibition in vivo at 5 mg/kg in assay [1] turned out to be 48%; in assay [3] it was 58%.

Turning to `CC(C)(COc1ncc(-c2ccc(-c3ncc(C(C)(C)C(F)(F)F)[nH]3)cc2)cc1F)C(=O)O` [Example 143], the inhibition in vivo at 5 mg/kg stood at 55% in assay [1] and 4% in assay [3].

With `Cc1cc(OCC2(C(=O)O)CC2)ccc1-c1ccc(-c2ncc(C(F)(F)F)[nH]2)cn1` [Example 71], the inhibition in vivo at 5 mg/kg in assay [1] amounted to 50%; in assay [3], 29%.

In the case of `Cc1cc(OCC(C)(C)C(=O)O)ncc1-c1ccc(-c2ncc(CC3CC3)[nH]2)cc1` [Example 108], the inhibition in vivo at 5 mg/kg in assay [1] was determined as 52%; in assay [3] it was 62%.

On to `Cc1cc(OCC2(C(=O)O)CC2)ncc1-c1cnc(-c2ncc(C(F)(F)F)[nH]2)c(F)c1` [Example 136], for which the figures for the inhibition in vivo at 5 mg/kg in assay [1] and in assay [3] were 64% and 62%, respectively.

As to `Cc1cc(OCC2(C(=O)O)CCC2)ncc1-c1ccc(-c2ncc(C(F)(F)F)[nH]2)c(F)c1` [Example 98-3), 1-{[(5-{3-fluoro-4-[5-(trifluoromethyl)-1H-imidazol-2-yl]phenyl}-4-methylpyridin-2-yl)oxy]methyl}cyclobutanecarboxylic acid], the inhibition in vivo at 5 mg/kg came to 105% in assay [1] and 89% in assay [3].

Turning to `Cc1cc(OCC2(C(=O)O)CC2)ncc1-c1ccc(-c2ncc(C(F)(F)F)[nH]2)nc1` [Example 132], the inhibition in vivo at 5 mg/kg in assay [1] was found to be 65%; in assay [3], 47%.

As for `CC(C)(COc1ccc(-c2ccc(-c3nc(C(F)(F)F)c[nH]3)cc2)cc1)C(=O)O` [Example 93-3), 3-({4′-[5-(trifluoromethyl)-1H-imidazol-2-yl]biphenyl-4-yl}oxy)-2,2-dimethylpropanoic acid], the results for the inhibition in vivo at 5 mg/kg in assay [1] and in assay [3] were 67% and 68%, respectively.

Turning to `Cc1cc(OCC2(C(=O)O)CCC2)ncc1-c1ccc(-c2ncc(C(F)(F)F)[nH]2)c(Cl)c1` [Example 101-3), 1-{[(5-{3-chloro-4-[5-(trifluoromethyl)-1H-imidazol-2-yl]phenyl}-4-methylpyridin-2-yl)oxy]methyl}cyclobutanecarboxylic acid], the inhibition in vivo at 5 mg/kg in assay [1] worked out at 71%; in assay [3], 57%.

As to `CC(C)(COc1ncc(-c2ccc(-c3ncc(C(F)(F)F)[nH]3)cc2)cn1)C(=O)O` [Example 67], the values for the inhibition in vivo at 5 mg/kg in assay [1] and in assay [3] were 70% and 58%, respectively.
